Measured values as given in US20120040906A1, “PROTEIN TARGETS IN DISEASE” (NATIONAL UNIVERSITY OF IRELAND, GALWAY, priority 2009, published 2012).

Key:
H9c2 cells = experiment: RT-PCR for induction of Grp78/BiP; format: cell-based; details: 1 μM Tg, 1 μg/ml Tm for 24 hr, three independent experiments
Method: (§1) Expression profiling of microRNAs during the conditions of Endoplasmic Reticulum (ER) stress in cardiomyocytes was performed. ER stress was induced by treatment with either thapsigargin, an inhibitor of the Sacroplasmic/Endoplasmic Reticulum Ca2+ATPase (SERCA) pump or tunicamycin (an inhibitor of N-linked glycosylation). RNA was isolated from three independent experiments where H9c2 cells were treated with thapsigargin (Tg) or tunicamycin (Tm) for 24 hours. RNAs from Tg and Tm treated cells were checked for induction of key ER resident chaperone Grp78/BiP by RT-PCR. Grp78/BiP is a central regulator of ER homeostasis due to its multiple functional roles in protein folding, ER calcium binding, and controlling of the activation of transmembrane ER stress sensors. […] Total RNA was isolated from H9c2 cells treated with 1 μM Tg, 1 μg/ml Tm for 24 hr and the expression levels of the indicated genes were analysed by RT-PCR.

H9c2 cardiomyocytes [1] = experiment: real-time RT-PCR confirmation of microRNA expression during ER stress; format: cell-based, Rat; details: Tg 1 μM or Tm 1 μg/ml, 24 hours; for mir-7a expression, Real-time PCR (set I) / mir-18a expression, Real-time PCR (set I) / mir-20a expression, Real-time PCR (set I) / mir-24 expression, Real-time PCR (set I) / mir-25 expression, Real-time PCR (set I) / mir-93 expression, Real-time PCR (set I) / mir-98 expression, Real-time PCR (set I) / mir-103 expression, Real-time PCR (set I) / mir-106b expression, Real-time PCR (set I) / mir-107 expression, Real-time PCR (set I) / mir-133a expression, Real-time PCR (set I) / mir-133b expression, Real-time PCR (set I) / mir-206 expression, Real-time PCR (set I) / mir-322 expression, Real-time PCR (set I) / mir-351 expression, Real-time PCR (set I): untreated control = 1.000, set I; for mir-7a expression, Real-time PCR (set II) / mir-18a expression, Real-time PCR (set II) / mir-20a expression, Real-time PCR (set II) / mir-24 expression, Real-time PCR (set II) / mir-25 expression, Real-time PCR (set II) / mir-93 expression, Real-time PCR (set II) / mir-98 expression, Real-time PCR (set II) / mir-103 expression, Real-time PCR (set II) / mir-106b expression, Real-time PCR (set II) / mir-107 expression, Real-time PCR (set II) / mir-133a expression, Real-time PCR (set II) / mir-133b expression, Real-time PCR (set II) / mir-206 expression, Real-time PCR (set II) / mir-322 expression, Real-time PCR (set II) / mir-351 expression, Real-time PCR (set II): untreated control = 1.000, set II
From the text: Expression of muscle specific microRNAs; mir-206, mir-133a and mir-133b and several members of mir-17-92 oncogenic cluster were repressed during conditions of ER stress. Based on their differential expression profile during ER stress and their hitherto unexplored role in cardiovascular biology mir-7a, mir-351 and mir-322 were identified as primary microRNA targets in conditions of ER stress. In addition, the invention has been extended to the human ortholog, miR-125, of rat miR-351. Similarly, the invention extends to the human ortholog, miR-424, of rat miR-322. […], and hsa-miR-424 & rno-miR-322 are microRNAs having similar seed sequences in humans and rats respectively.
(§2) Control, Untreated; Tg, thapsigargin (1 μM) for 24 hours, Tm, tunicamycin (1 μg/ml) for 24 hours. mir-7a, mir-351 and mir-322 are shown in bold face.

H9c2 cardiomyocytes [2] = experiment: microarray analysis of microRNA expression during ER stress; format: cell-based, Rat; details: Tg 1 μM or Tm 1 μg/ml, 24 hours, untreated control = 1.000
Method: as §1
Next equal amounts of RNAs from each experiment were pooled and used for microarray analysis to minimize experimental variations. The experimental outline for the microarray analysis is illustrated in FIG. 2. The chips were spotted with 350 mature microRNAs of Rat as per Sanger miRBase database (Release 11.0). Each microRNA was spotted on the array nine times and for each RNA sample two chips were used. There were 16 sets of control probes on each array. There were greater than 10 positive controls (spike-in controls & 5S). There were greater than 10 negative controls (mismatch control). A 20-mer control RNA is spiked into each sample followed by labeling and hybridization. The control RNA had been computationally and experimentally verified not to cross-hybridize with the probes of any known microRNA transcript. The background-subtracted signals were used for statistical tests and clustering analysis.
as §2

## C/C=C(/C)C(=O)O[C@H]1C(C)=C2[C@H]([C@@H]1OC(=O)CCCCCCC)[C@@](C)(OC(C)=O)C[C@H](OC(=O)CCC)[C@@]1(O)[C@H]2OC(=O)[C@@]1(C)O [Tg, thapsigargin]
H9c2 cells
  induction of ER resident chaperone Grp78/BiP by RT-PCR: induction of Grp78/BiP in all three experiments
H9c2 cardiomyocytes [1]
  mir-7a expression, Real-time PCR (set I): 1.540
  mir-18a expression, Real-time PCR (set I): 0.720
  mir-20a expression, Real-time PCR (set I): 0.930
  mir-24 expression, Real-time PCR (set I): 0.810
  mir-25 expression, Real-time PCR (set I): 0.790
  mir-93 expression, Real-time PCR (set I): 0.660
  mir-98 expression, Real-time PCR (set I): 1.470
  mir-103 expression, Real-time PCR (set I): 0.860
  mir-106b expression, Real-time PCR (set I): 0.820
  mir-107 expression, Real-time PCR (set I): 0.580
  mir-133a expression, Real-time PCR (set I): 0.720
  mir-133b expression, Real-time PCR (set I): 0.470
  mir-206 expression, Real-time PCR (set I): 0.540
  mir-322 expression, Real-time PCR (set I): 0.830
  mir-351 expression, Real-time PCR (set I): 0.210
  mir-7a expression, Real-time PCR (set II): 3.800
  mir-18a expression, Real-time PCR (set II): 0.700
  mir-20a expression, Real-time PCR (set II): 0.620
  mir-24 expression, Real-time PCR (set II): 0.870
  mir-25 expression, Real-time PCR (set II): 0.799
  mir-93 expression, Real-time PCR (set II): 0.530
  mir-98 expression, Real-time PCR (set II): 0.850
  mir-103 expression, Real-time PCR (set II): 0.590
  mir-106b expression, Real-time PCR (set II): 0.800
  mir-107 expression, Real-time PCR (set II): 0.800
  mir-133a expression, Real-time PCR (set II): 1.140
  mir-133b expression, Real-time PCR (set II): 0.680
  mir-206 expression, Real-time PCR (set II): 0.820
  mir-322 expression, Real-time PCR (set II): 0.690
  mir-351 expression, Real-time PCR (set II): 0.210
H9c2 cardiomyocytes [2]
  mir-7a expression, Microarray Analysis: 1.341
  mir-18a expression, Microarray Analysis: 0.426
  mir-20a expression, Microarray Analysis: 0.770
  mir-24 expression, Microarray Analysis: 0.664
  mir-25 expression, Microarray Analysis: 0.633
  mir-93 expression, Microarray Analysis: 0.583
  mir-98 expression, Microarray Analysis: 3.822
  mir-103 expression, Microarray Analysis: 0.654
  mir-106b expression, Microarray Analysis: 0.638
  mir-107 expression, Microarray Analysis: 0.682
  mir-133a expression, Microarray Analysis: 0.595
  mir-133b expression, Microarray Analysis: 0.565
  mir-206 expression, Microarray Analysis: 0.683
  mir-322 expression, Microarray Analysis: 0.094
  mir-351 expression, Microarray Analysis: 0.141

## tunicamycin [Tm]
H9c2 cells
  induction of ER resident chaperone Grp78/BiP by RT-PCR: induction of Grp78/BiP in all three experiments
H9c2 cardiomyocytes [1]
  mir-7a expression, Real-time PCR (set I): 1.140
  mir-18a expression, Real-time PCR (set I): 1.090
  mir-20a expression, Real-time PCR (set I): 1.340
  mir-24 expression, Real-time PCR (set I): 0.930
  mir-25 expression, Real-time PCR (set I): 0.906
  mir-93 expression, Real-time PCR (set I): 0.800
  mir-98 expression, Real-time PCR (set I): 1.480
  mir-103 expression, Real-time PCR (set I): 0.960
  mir-106b expression, Real-time PCR (set I): 1.060
  mir-107 expression, Real-time PCR (set I): 0.590
  mir-133a expression, Real-time PCR (set I): 0.750
  mir-133b expression, Real-time PCR (set I): 0.480
  mir-206 expression, Real-time PCR (set I): 0.570
  mir-322 expression, Real-time PCR (set I): 0.840
  mir-351 expression, Real-time PCR (set I): 0.290
  mir-7a expression, Real-time PCR (set II): 1.650
  mir-18a expression, Real-time PCR (set II): 0.640
  mir-20a expression, Real-time PCR (set II): 0.650
  mir-24 expression, Real-time PCR (set II): 0.760
  mir-25 expression, Real-time PCR (set II): 0.760
  mir-93 expression, Real-time PCR (set II): 0.550
  mir-98 expression, Real-time PCR (set II): 0.750
  mir-103 expression, Real-time PCR (set II): 0.500
  mir-106b expression, Real-time PCR (set II): 0.737
  mir-107 expression, Real-time PCR (set II): 0.630
  mir-133a expression, Real-time PCR (set II): 0.730
  mir-133b expression, Real-time PCR (set II): 0.510
  mir-206 expression, Real-time PCR (set II): 0.604
  mir-322 expression, Real-time PCR (set II): 0.610
  mir-351 expression, Real-time PCR (set II): 0.230
H9c2 cardiomyocytes [2]
  mir-7a expression, Microarray Analysis: 2.458
  mir-18a expression, Microarray Analysis: 0.550
  mir-20a expression, Microarray Analysis: 0.791
  mir-24 expression, Microarray Analysis: 0.672
  mir-25 expression, Microarray Analysis: 0.771
  mir-93 expression, Microarray Analysis: 0.524
  mir-98 expression, Microarray Analysis: 4.921
  mir-103 expression, Microarray Analysis: 0.571
  mir-106b expression, Microarray Analysis: 0.672
  mir-107 expression, Microarray Analysis: 0.601
  mir-133a expression, Microarray Analysis: 0.690
  mir-133b expression, Microarray Analysis: 0.641
  mir-206 expression, Microarray Analysis: 0.607
  mir-322 expression, Microarray Analysis: 0.113
  mir-351 expression, Microarray Analysis: 0.179
